Test results reported in patent US20200046731A1, “BI[…] STATE (17- β)-HYDROXY-4-ANDROSTEN-3-ONE ESTERS” (Lipocine Inc., priority 2014, published 2020).

Assay: Serum testosterone responder analysis after oral dosing (Table 3)
Format: in vivo, human
Method: Some of the dosage forms of compositions described herein comprising or prepared from (17-β)-3-Oxoandrost-4-en-17-yl tridecanoate were administered to human subjects as a single dose of the esters to subjects. Serial blood samples were drawn at predetermined time (e.g., t=0, 12, 24, etc.) and analyzed for testosterone concentration using a validated HPLC-MS/MS analytical method. The Cmax, Cavg t1-t2, Tmax and AUCt1-t2 are calculated for testosterone in the serum of the subjects. Pharmacokinetic and statistical analyses are performed on the data obtained from the subjects. The pharmacokinetic parameters are defined as follows: • AUCt1-t2: The area under the serum concentration versus time curve, from time t1 (in hours) to time t2 (in hours) measurable concentration of the administered drug, as calculated by the linear trapezoidal method. […] This represents the average serum testosterone level over a period starting from time 0 (zero) hours to […] post-administration of dose. It should also be noted that Cavg t0-t24 is also referred to as simply “Cavg” in this invention. • Cavg t0-t12: The average serum concentration of testosterone obtained by dividing the AUCt0-t12 value by 12. This represents the average serum testosterone level over a period starting from time 0 (zero) hours to […] post-administration of dose. • Cavg t12-24: The average serum concentration of testosterone obtained by dividing the AUCt12-t24 value by 12. This represents the average serum testosterone level over the second half of the 24-hours post-administration of dose period; i.e., from a period starting from time 12 hours to time 24 hours post-administration of dose.

[1] = starting dose 100 (±50) mg T equivalent QD or BID
[2] = starting dose 300 (±50) mg T equivalent QD
[3] = starting dose 350 (±100) mg T equivalent BID
[4] = starting dose 1000 (±200) mg T equivalent QD or BID

Compound: CCCCCCCCCCCCC(=O)O[C@H]1CC[C@H]2[C@@H]3CCC4=CC(=O)CC[C@]4(C)[C@H]3CC[C@]12C [(17-β)-3-Oxoandrost-4-en-17-yl tridecanoate]
- % Responders with Cave t0-t24 (ng/dL) 300-1140 [1]: 50-65%
- % Responders with Cmax (ng/dL) 1800-2500 [1]: 0-5%
- % Responders with Cmax (ng/dL) >2500 [1]: 0-1%
- % Responders with Cmax (ng/dL) ≤1500 [1]: 100%
- % Responders with Cmax (ng/dL) 1800-2500 [2]: 0-5%
- % Responders with Cmax (ng/dL) >2500 [2]: 0-1%
- % Responders with Cmax (ng/dL) ≤1500 [2]: 100%
- % Responders with Cave t0-t24 (ng/dL) 300-1140 (starting dose 300 (±50) mg T equivalent QD, 12-20% EAPI formulation): 100%
- % Responders with Cave t0-t24 (ng/dL) 300-1140 [3]: 100%
- % Responders with Cmax (ng/dL) 1800-2500 [3]: 0-5%
- % Responders with Cmax (ng/dL) >2500 [3]: 0-1%
- % Responders with Cmax (ng/dL) ≤1500 [3]: 100%
- % Responders with Cave t0-t24 (ng/dL) 300-1140 [4]: 100%
- % Responders with Cmax (ng/dL) 1800-2500 [4]: 20-30%
- % Responders with Cmax (ng/dL) >2500 [4]: 60-80%
- % Responders with Cmax (ng/dL) ≤1500 [4]: 0%
